Reference: publication PMC8341910, “Structural and biophysical insights into the mode of covalent binding of rationally designed potent BMX inhibitors” (RSC Chemical Biology, 2020)
Values after ≈ are worked out from the molar mass of the structure shown. Values joined by “and” are separate entries in the source; they are usually repeats but may differ in a detail not shown here. Equal entries are not always repeated. Where two headings read alike, the source gives them in different places.

How the values were obtained:
[1] = pH 6.8
From the text: (§1) For assessment of drug permeability, we relied on parallel artificial membrane permeability assay (PAMPA) performed at Pion Inc. with the PAMPA Evolution™ instrument (Table S1, ESI ^†).
(§2) methods (ESOL model1 and Ali et al.2) PAMPA: Pe is effective permeability (x10-6 cm/sec)
(§3) measured directly from assay at pH 6.8 and %R is membrane retention.
(§4) as the average of quadruplicates. Und label refers to compounds with extremely low solubility
(§5) for which UV limits were below the detection limits therefore considered undetected.
(§6) Compounds were labelled as high permeability (green), medium permeability (orange) or low
(§7) Artificial Membrane Permeability (PAMPA):
(§8) The PAMPA Evolution™ instrument was used to determine permeability, at Pion Inc. In
(§9) PAMPA, a sandwich is formed such that each composite well is divided into two chambers,
(§10) measured at pH 6.8 in the donor compartment using low-binding, low UV Prisma buffer. The
(§11) drug-free acceptor compartment was filled with acceptor sink buffer containing a scavenger at
(§12) the start of the test. The proprietary scavenger mimics serum proteins and blood circulation,
(§13) thus creating sink conditions. Aqueous solutions of studied compounds are prepared by diluting
(§14) and thoroughly mixing 3 µL of DMSO stock in 600 µL of Prisma HT buffer. Final
(§15) concentration of organic solvent (DMSO) in aqueous buffer is ≤ 0.5% (v/v). The reference
(§16) solution is identical to the donor at time zero, so that any surface adsorption effects from the
(§17) plastic ware is compensated. The PAMPA sandwich was assembled and allowed to incubate
(§18) for ~15 hours. The solutions in the donor compartment were un-stirred within duration of the
(§19) experiment. Thus, the thickness of the aqueous boundary layer expected to be about 1000 µm.
(§20) The sandwich was then separated, and both the donor and receiver compartments were assayed
(§21) for the amount of drug present by comparison with the UV spectrum obtained from reference

[2] = target: T1, recombinant human BMX protein (hBMX) (Homo sapiens, UniProt P51813); assay: Differential scanning fluorimetry (DSF); assay type: binding; conditions: 100 μM compound; for ΔTm / ΔTm at 100 µM: versus apo-BMX; for Average Tm of BMX with compound: apo-BMX Tm 51.8-52.2 °C; for ΔTm at 100 µM: read-out: ΔTm
T1 construct: Crystallization, data collection, and structure determination of BMX catalytic domain in; made in house; host or cells: Sf-9 insect cells
Protocol: We further characterized the binding interaction between JS24–JS27 and BMX by using differential scanning fluorimetry (DSF) and surface plasmon resonance (SPR). Purified recombinant human BMX protein (hBMX) was first subjected to thermal scanning in the absence and presence of JS24–JS27, and the respective protein melting temperature (Tm) calculated.
Differential Scanning Fluorimetry:
DSF was performed in MicroAmp™ EnduraPlate™ Optical 96 -Well Clear Reaction Plates
with Barcode (Applied Biosystems, Life Technologies, California, USA) using a QuantStudio
7 Flex Real-Time PCR System (Applied Biosystems). Pre-incubation of the protein with the
compound for 2 hours at 4 °C was required prior to DSF experiments. The final reaction mixture
(20 μL of total volume) contained 4 μg of His6-BMX, 4-fold of Protein Thermal Shift™ Dye
(Applied Biosystems) diluted in protein buffer solution, and 100 μM of compound. The
temperatures were obtained by taking the midpoint of each transition.

[3] = Dynamic light scattering, colloidal aggregation; assay type: physicochemical; conditions: measured at 10 µM, 1 µM and 100 nM, 25 °C, read-out: DLS maximum soluble concentration at which no aggregates are observed
Protocol: In addition, we measured particle sizes by using dynamic light scattering (DLS).
DLS is measured at 10 µM, 1µM and 100 nM. The maximum soluble
concentration – at which no aggregates are observed - is indicated and the colour code indicates
Dynamic Light Scattering:
Dynamic light scattering (Zetasizer Nano S, Malvern, UK) was used to determine compound colloidal aggregation. […] A 10 mM stock solution of
test compounds was prepared in DMSO, following dilution to deionized and filtered water to
obtain an analyte solution of 10 μM (0.1% DMSO). Colloidal aggregation was measured
through sequential dilutions at 10 μM, 1 μM and 0.1 μM.

[4] = target: T2, BMX (Homo sapiens, UniProt P51813); assay: BMX biochemical activity assay (HTRF, phosphorylation of a biotinylated peptide); conditions: for BMX potency gain (fold) against BMX-IN-1 / BMX potency loss (fold) against control BMX-IN-1: relative to the control of the same set of experiments
T2 sequence (P51813 1-675): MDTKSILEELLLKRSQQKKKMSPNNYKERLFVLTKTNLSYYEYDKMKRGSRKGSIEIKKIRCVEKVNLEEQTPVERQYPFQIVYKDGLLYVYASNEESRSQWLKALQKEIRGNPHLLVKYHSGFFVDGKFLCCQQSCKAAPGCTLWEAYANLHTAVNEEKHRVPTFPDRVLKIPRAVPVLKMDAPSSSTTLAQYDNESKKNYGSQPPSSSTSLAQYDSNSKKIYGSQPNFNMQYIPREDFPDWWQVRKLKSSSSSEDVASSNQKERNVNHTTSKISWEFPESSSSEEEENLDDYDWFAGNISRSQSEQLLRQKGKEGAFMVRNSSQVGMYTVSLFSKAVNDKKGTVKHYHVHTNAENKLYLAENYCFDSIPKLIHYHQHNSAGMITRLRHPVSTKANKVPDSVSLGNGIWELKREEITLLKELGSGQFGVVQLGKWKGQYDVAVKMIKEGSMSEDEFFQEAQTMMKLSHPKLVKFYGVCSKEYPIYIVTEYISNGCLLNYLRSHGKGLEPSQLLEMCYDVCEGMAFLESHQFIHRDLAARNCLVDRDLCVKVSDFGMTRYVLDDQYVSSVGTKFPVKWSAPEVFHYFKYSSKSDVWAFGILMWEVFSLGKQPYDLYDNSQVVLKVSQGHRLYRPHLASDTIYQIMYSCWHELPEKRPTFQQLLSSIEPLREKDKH

[5] = in vitro; conditions: PAMPA
From the text: as §1, §2, §3, §4, §5, §6, §7, §8, §9, §10, §11, §12, §13, §14, §15, §16, §17, §18, §19, §20, §21

[6] = test system: LNCaP cells; assay: LNCaP cell growth assay (CellTiter-Glo, 96 h); assay type: cell-based; conditions: Homo sapiens, 96-well plates, mean of three experiments in triplicate, read-out: GI50 LNCaP
Protocol: GI50 values are reported in μM and are the mean of three individual experiments performed in triplicate. N.d., non-determined, no growth inhibition observed within the concentrations tested.
Cellular activity Assay: LNCaP and PC-3 Cell Growth Assay
Cells were seeded in white, opaque-bottom 96-well plates at 5000 cells/well (LNCaP) or 2000 cells/well (PC-3) in a total volume of 100 µL of culture media.
fold) in 100 µL media were added to the cells 24 hours later. After 96 hours incubation cellular viability was assessed by CellTiter-Glo® (Promega) according to the manufacturer’s instructions. The values were normalized to vehicle and IC50 was calculated using GraphPad

[7] = target: T3, His6-hsBMX (Homo sapiens, UniProt P51813); assay: Surface plasmon resonance (SPR); assay type: binding; conditions: 1:1 Langmuir fit, 25 °C
T3 construct: Crystallization, data collection, and structure determination of BMX catalytic domain in; made in house; host or cells: Sf-9 insect cells
From the text: response upon compound injection (t=0s), or upon washing (t=220s), on immobilized His6-
hsBMX surfaces. Compound concentrations injected on already saturated surfaces were not
included in the 1:1 Langmuir fitting model. X-axis: time (s); y-axis: response (arbitrary units).
Inset plots [x-axis: compound concentration (M); y-axis: response (arbitrary units)] show the
steady-state affinity (KDss) fit for the interactions wherein equilibrium was reached.
Surface Plasmon Resonance:
The kinetic and affinity parameters of protein-compound interaction were evaluated by SPR.
Experiments were carried out in a Biacore 4000 instrument (Biacore AB, GE Healthcare Life
Sciences, Uppsala, Sweden) at 25 °C. His6-BMX protein was diluted to 10 µg/mL in sodium
acetate pH 5.5, in the presence of 5 µM staurosporine and immobilized onto CM5 (Series S)
sensor chips, using the standard amine coupling procedure. Prior to immobilization, the
carboxymethylated surface of the chip was activated with 400 mM 1-ethyl-3-(3-
dimethylaminopropyl)-carbodiimide and 100 mM N-hydroxysuccinimide for 10 min. HBS-N
(10 mM HEPES pH7.4, 150mM NaCl) was used as the background buffer. Protein was coupled
to the surface after 2 to 10 min injection times, at a flow rate of 10 µL/min, in order to reach
1500 to 3500 response units (RU). The remaining activated carboxymethylated groups were
blocked with a 7 min injection of 1 M ethanolamine pH 8.5. Compounds were pre-diluted in
DMSO to 50x the desired highest tested concentration and diluted afterwards in running buffer
(20 mM HEPES pH 7.4, 150 mM NaCl, 1 mM DTT, 0.1 mM EGTA, 0.05 % (v/v) TWEEN-
20, 5 mM MgCl2) in order to reach 2% of DMSO concentration. A DMSO solvent correction
(1% - 3%) was performed to account for variations in bulk signal and to achieve high-quality
data. Each compound was injected over immobilized His6-BMX for 220 s (30 µL min-1;
association phase) followed by 600 to 2000 s of buffer flow (dissociation phase) at a maximum
five times in 2-fold dilution series. All sensorgrams were processed by first subtracting the
binding response recorded from the control surface (reference spot), followed by subtracting
the buffer blank injection from the reaction spot. All datasets were fit to a simple 1:1 Langmuir
interaction model with the provided Biacore 4000 Evaluation software, to determine kinetic rate constants (kon, koff) or steady-state affinity (KDss).

[8] = target: T2, BMX; assay: Kinetic characterization with ADP-Glo kinase assay; assay type: biochemical; set-up: purchased Promega Corporation (USA) V4512; conditions: duplicate, mean ± S.D.
From the text: The inactivation of BMX occurs in a two-step process that is governed by two parameters: the affinity of the initial non-covalent binding, KI, and the rate of the subsequent covalent bond-forming reaction with the thiol of the cysteine residue, kinact. […]. […] Thus, taking into account that all the analogues have the same Michael acceptor moiety, the enhanced activity must be a result of the structural modifications introduced in the scaffold. […]
Kinetic characterization using an ADP-GLOTM kinase assay:
The BMX enzyme system (Catalog. V4512) and the ADP-GloTM kinase assay were purchased from Promega Corporation (USA). In each kinase reaction, the concentration of BMX was set to 4.5 ng/µL. The peptide substrate Poly (4:1 Glu, Tyr) and ATP concentrations were set to 0.25 mg/mL and 50 µM, respectively. BMX was pre-incubated with different inhibitor concentrations (10-fold serial dilutions, starting at 1 mM), over different time periods (2 - 60 min), before initiating the kinase reactions. Reactions were started by adding 2.5X Poly E4Y1/ATP mixture. The reactions were carried out in a 384-well plate, stopping all at the same time with the addition of 5 µL of ADP-GloTM reagent, to consume the remaining ATP within 40 min. Then, 10 µL of kinase detection reagent was added into the wells and incubated for 30 min to produce a luminescence signal. The signal was measured using an Infinite M200 […]
observed rate constants for inhibition (kobs), at different inhibitor concentrations, were determined from the slope of a semi-logarithmic plot of inhibition versus time, and re-plotted against inhibitor concentration (nM). The experimental values were fitted into a hyperbolic function using GraphPad Prism 8 ([…]), to obtain the KI, kinact, and kinact/KI, as described previously.12 […]
(Thermo Fisher Scientific) using gold-coated glass needles. […]

[9] = target: BTK (Homo sapiens, UniProt Q06187); assay: BTK biochemical activity assay (radiometric, KinaseProfiler); set-up: purchased Eurofins DiscoverX KinaseProfiler (contract assay)
Sequence of BTK (Q06187 whole entry, species assumed): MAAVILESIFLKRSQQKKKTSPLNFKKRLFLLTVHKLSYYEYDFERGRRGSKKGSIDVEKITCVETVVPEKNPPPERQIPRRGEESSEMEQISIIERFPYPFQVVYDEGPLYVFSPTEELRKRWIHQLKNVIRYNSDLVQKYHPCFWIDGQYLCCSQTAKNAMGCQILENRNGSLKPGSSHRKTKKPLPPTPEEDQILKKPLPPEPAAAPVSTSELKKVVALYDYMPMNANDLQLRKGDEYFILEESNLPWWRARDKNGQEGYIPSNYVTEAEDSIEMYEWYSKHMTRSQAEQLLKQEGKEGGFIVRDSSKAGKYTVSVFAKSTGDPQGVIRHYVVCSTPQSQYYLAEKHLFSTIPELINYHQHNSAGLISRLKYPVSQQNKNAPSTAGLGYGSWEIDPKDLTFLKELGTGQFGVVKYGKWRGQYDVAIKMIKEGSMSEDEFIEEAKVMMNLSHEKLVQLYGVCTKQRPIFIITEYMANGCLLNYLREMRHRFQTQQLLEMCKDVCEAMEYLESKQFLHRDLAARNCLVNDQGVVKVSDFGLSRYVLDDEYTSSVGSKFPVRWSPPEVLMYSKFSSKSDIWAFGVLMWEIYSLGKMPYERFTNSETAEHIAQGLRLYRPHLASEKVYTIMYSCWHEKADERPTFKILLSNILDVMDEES

[10] = Experiment 2 of Fig. S3, control commercial BMX-IN-1, read-out: BMX IC50
[11] = Experiment 3 of Fig. S3, control commercial BMX-IN-1, read-out: BMX IC50
[12] = Experiment 1 of Fig. S3, control JS9A (in-house BMX-IN-1), read-out: BMX IC50
[13] = deionized and filtered water (0.1% DMSO), kinetic from dmso stock
[14] = pH 6.8, PAMPA/Pe effective permeability

Compound | PAMPA/Pe effective permeability [1] | ΔTm [2] | Average Tm of BMX with compound [2] | solubility ([3]; water) | IC50 [4, 10] | PAMPA/%R membrane retention [1] | further results
C=CC(=O)Nc1cc(-n2c(=O)ccc3cnc4ccc(-c5ccc(NS(=O)(=O)CCCC)cc5)cc4c32)ccc1C [JS14] | Und | 7.61±0.11 °C | 59.53±0.11 °C | 0.1 µM (≈ 0.0567 µg/mL) | 890 ± 27 nM |  | 
C=CC(=O)Nc1cc(-n2c(=O)ccc3cnc4ccc(-c5ccc(C(F)(F)F)nc5)cc4c32)ccc1C [JS19] | Und |  | 58.64±0.13 °C | < 0.1 µM | 470 ± 179 nM |  | 
C=CC(=O)Nc1cc(-n2c(=O)ccc3cnc4ccc(N5CCC(N(C)C)CC5)cc4c32)ccc1C [JS23] | 2.2±0.2 x10-6 cm/sec | 8.66±0.11 °C | 60.59±0.11 °C |  | 41 ± 6 nM | 39±5% | 
C=CC(=O)Nc1cc(-n2c(=O)ccc3cnc4ccc(-c5cccc(NS(C)(=O)=O)c5)cc4c32)ccc1C [JS15] | 30±18 x10-6 cm/sec | 8.79±0.28 °C | 60.72±0.28 °C | 1 µM (≈ 0.525 µg/mL) |  | 17±24% | IC50 [4, 11]: 119 ± 11.4 nM
COC(=O)C=CCNc1cc(-n2c(=O)ccc3cnc4ccc(-c5ccc(NS(C)(=O)=O)cc5)cc4c32)ccc1C (mixture of isomers) [JS13] | 45±9 x10-6 cm/sec | 0.52±0.06 °C | 52.44±0.06 °C | 0.1 µM |  | 30±16% | 
C=CC(=O)Nc1cc(-n2c(=O)ccc3cnc4ccc(N5CCN(S(C)(=O)=O)CC5)cc4c32)ccc1C [JS22] | 18±1 x10-6 cm/sec | 8.79±0.21 °C | 60.72±0.21 °C |  |  | 19±6% | IC50 [4, 11]: 93.8 ± 0.87 nM
C=CC(=O)Nc1cc(-n2c(=O)ccc3cnc4ccc(Br)cc4c32)ccc1C [JS29] | 32±4 x10-6 cm/sec |  |  |  | 44 ± 2 nM | 1±1% | 
Cc1ccc(-n2c(=O)ccc3cnc4ccc(-c5ccc(NS(C)(=O)=O)cc5)cc4c32)cc1NCC=CC#N (mixture of isomers) [JS12] | 45±3 x10-6 cm/sec | 0.13±0.06 °C | 52.05±0.06 °C | 0.1 µM |  | 39±2% | 
C=CC(=O)Nc1cccc(-n2c(=O)ccc3cnc4ccc(-c5ccc(NS(C)(=O)=O)cc5)cc4c32)c1 [JS9D] | 11±1 x10-6 cm/sec | 7.74±0.01 °C | 59.66±0.01 °C | 1 µM (≈ 0.511 µg/mL) |  | 48±3% | IC50 [4, 12]: 59 ± 5 nM; BMX potency gain (fold) against BMX-IN-1 [4]: 6 fold
C=CC(=O)Nc1cc(-n2c(=O)ccc3cnc4ccc(-c5ccncc5)cc4c32)ccc1C [JS17] | 24±1 x10-6 cm/sec | 7.62±0.01 °C | 59.55±0.01 °C |  | 45 ± 10 nM | 10±3% | 
C=CC(=O)Nc1cc(-n2c(=O)ccc3cnc4ccc(-c5ccc(C#N)nc5)cc4c32)ccc1C [JS18] | 24±2 x10-6 cm/sec | 7.49±0.11 °C | 59.42±0.11 °C | < 0.1 µM | 140 ± 12 nM | 18±5% | 
C=CC(=O)Nc1cc(-n2c(=O)ccc3cnc4ccc(N5CCOCC5)cc4c32)ccc1C [JS21] | 22±1 x10-6 cm/sec | 8.57±0.06 °C | 60.50±0.06 °C |  | 43 ± 5 nM | 19±3% | 
C=CC(=O)Nc1cc(-n2c(=O)ccc3cnc4ccc(-c5ccc(NS(C)(=O)=O)cc5)cc4c32)ccc1OC [JS9E] | 40±5 x10-6 cm/sec | 6.05±0.01 °C | 57.97±0.01 °C | 1 µM (≈ 0.541 µg/mL) |  | 55±8% | IC50 [4, 12]: 1300 ± 206 nM; BMX potency loss (fold) against control BMX-IN-1 [4]: 4 fold
C=CC(=O)Nc1cc(C)cc(-n2c(=O)ccc3cnc4ccc(-c5ccc(NS(C)(=O)=O)cc5)cc4c32)c1 [JS9B, N-(3-methyl-5-(9-(4-(methylsulfonamido)phenyl)-2-oxobenzo[h][1,6]naphthyridin-1(2H)-yl)phenyl)acrylamide] |  |  | 59.68±0.11 °C |  |  | 35±7% | ΔTm at 100 µM [2]: 7.75 ± 0.11 °C; solubility [3, 13]: < 0.1 µM; IC50 [4, 12]: 240 ± 25 nM; Papp [5, 14]: 7.1 ± 2.3 ×10⁻⁶ cm/s
C=CC(=O)Nc1cccc(-n2c(=O)ccc3cnc4cc(N5CCN(S(C)(=O)=O)CC5)ccc4c32)c1 [JS27] |  |  | 62.94±0.06 °C |  |  | 42±14% | GI50 [6]: 9300 nM; koff [7]: < 0.0001 s⁻¹; kon [7]: 99000 M⁻¹ s⁻¹; k inact [8]: 0.166 min⁻¹ and 0.166 ± 0.003 min⁻¹; ΔTm at 100 µM [2]: 10.81 ± 0.06 °C; solubility [3, 13]: ≥ 10 µM; BTK potency gain (fold) relative to BMX-IN-1 [9]: 15 fold; IC50 ([9]; duplicate, mean ± S.D., read-out: BTK inhibition IC50): 24.3 ± 0.3 nM; LE (BTK) ([9]; ligand efficiency): 0.29; LipE (BTK) ([9]; lipophilic efficiency): 5.29; IC50 ([4]; Experiment 4 of Fig. S3 = Fig. 1b, duplicate, mean ± S.D., read-out: BMX inhibition IC50): 13.7 nM; LE (BMX) ([4]; ligand efficiency): 0.30; LipE (BMX) ([4]; lipophilic efficiency): 5.54; BMX potency gain (fold) against BMX-IN-1 [4]: ≈ 4 fold; Papp ([5]; pH 6.8, PAMPA permeability): 12 ×10⁻⁶ cm/s; Papp [5, 14]: 12 ± 2 ×10⁻⁶ cm/s
C=CC(=O)Nc1ccc(C)c(-n2c(=O)ccc3cnc4ccc(-c5ccc(NS(C)(=O)=O)cc5)cc4c32)c1 [JS9C, N-(4-methyl-3-(9-(4-(methylsulfonamido)phenyl)-2-oxobenzo[h][1,6]naphthyridin-1(2H)-yl)phenyl)acrylamide] |  |  | 54.12±0.06 °C |  |  | 51±6% | ΔTm at 100 µM [2]: 2.2 ± 0.06 °C; solubility [3, 13]: 1 µM (≈ 0.525 µg/mL); IC50 [4, 12]: 6900 ± 2920 nM; BMX potency loss (fold) against control BMX-IN-1 [4]: abolishes target inhibition; Papp [5, 14]: 11 ± 1 ×10⁻⁶ cm/s
C=CC(=O)Nc1cc(-n2c(=O)ccc3cnc4ccc(N5CCCCC5)cc4c32)ccc1C [JS20] | 30±2 x10-6 cm/sec | 7.36±0.11 °C | 59.29±0.11 °C |  | 42 ± 13 nM | 18±1% | 
